Assay [1] has as its target T1, Aurora A kinase (Homo sapiens, UniProt O14965).
T1 sequence (O14965 1-403): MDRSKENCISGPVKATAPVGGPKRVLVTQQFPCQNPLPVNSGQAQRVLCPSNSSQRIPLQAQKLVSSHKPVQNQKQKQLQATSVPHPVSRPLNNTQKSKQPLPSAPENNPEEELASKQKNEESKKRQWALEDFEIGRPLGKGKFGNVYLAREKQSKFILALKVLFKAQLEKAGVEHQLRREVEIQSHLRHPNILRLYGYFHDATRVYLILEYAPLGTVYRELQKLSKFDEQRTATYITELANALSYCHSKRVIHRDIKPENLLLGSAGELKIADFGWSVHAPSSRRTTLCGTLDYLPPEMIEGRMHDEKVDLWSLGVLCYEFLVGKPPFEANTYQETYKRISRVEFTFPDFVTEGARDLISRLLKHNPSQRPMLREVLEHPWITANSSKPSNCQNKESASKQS
Put plainly: IC50 determination for inhibitors of Aurora A kinase (ELISA, GST-Histone H3 substrate). Format: biochemical. The settings on record: mutant Aurora A kinase, 30 μM ATP, 40 minutes; read-out: IC50 Aurora A kinase inhibition. The protocol: IC50 Determination for Inhibitors of Aurora A Kinase
Aurora A is a Serine Threonine Kinase Involved in Spindle Assembly and Chromosome Segregation.
The assay is a typically ELISA-type assay where substrate (GST-Histone H3) is coupled to the assay-plate and is phosphorylated by the kinase. Phosphorylation is detected by a mouse anti-Phosphopeptid mAb and an HRP-labeled anti-mouse pAb. The assay is validated for IC50-determination.
Kinase activities were measured by Enzyme-Linked Immunosorbent Assay (ELISA): Maxisorp 384-well plates (Nunc) were coated with recombinant fusion protein comprising residues 1-15 of HistoneH3 fused to the N-terminus of Glutathione-S-Transferase. Plates were then blocked with a solution of 1 mg/mL I-block (Tropix cat# T2015—highly purified form of casein) in phosphate-buffered saline. Kinase reactions were carried out in the wells of the ELISA plate by combining an appropriate amount of mutant Aurora A kinase with test compound and 30 μM ATP. The reaction buffer was […] Kinase Buffer (Cell Signaling cat # 9802) supplemented with 1 μg/mL I-block. Reactions were stopped after 40 minutes by addition of 25 mM EDTA (ethylenediaminetetraacetic acid). After washing, substrate phosphorylation was detected by addition of anti-phospho-Histone H3 (Ser 10) 6G3 mAb (Cell Signaling cat #9706) and sheep anti-mouse pAb-HRP (Amersham cat# NA931V), followed by colorimetric development with TMB (3,3′,5,5′-tetramethylbenzidine from Kirkegaard & Perry Laboratories). After readout of the absorbance, IC50 values were calculated using a non-linear curve fit (XLfit® software (ID Business Solution Ltd., Guilford, Surrey, UK)).
(In general: In an ELISA, binding on a coated surface is turned into a signal by an enzyme label.)

Assay [2] concerns HCT 116 cells. Put plainly: Viability assay in HCT 116 cells (CellTiter-Glo). The format is cell-based. Particulars: 120 h; HCT 116 human colon carcinoma cells, 5 days incubation. How it is done: Viability Assay in HCT 116 Cells
A viability assay was performed using the CellTiter-Glo® Luminescent Cell Viability Assay (see Promega Corporation's Technical Bulletin No. 288, pp. 1-11 [revised February, 2004] which is hereby incorporated by reference in its entirety). This assay is a homogeneous method of determining the number of viable cells in culture based on quantitation of the ATP present, an indicator of metabolically active cells. The assay is designed for use with multiwell formats, making it ideal for automated high-throughput screening (HTS), cell proliferation and cytotoxicity assays. The homogeneous assay procedure involves adding a single reagent (containing luciferase, luciferan substrate, and buffer) directly to cells cultured in serum-supplemented medium. Cell washing, removal of medium and multiple pipetting steps are not required. The system detects as few as 15 cells/well in a 384-well format in 10 minutes after adding reagent and mixing.
The homogeneous “add-mix-measure” format results in cell lysis and generation of a luminescent signal proportional to the amount of ATP present. The amount of ATP is directly proportional to the number of cells present in culture. The above-referenced assay generates a “glow-type” luminescent signal, produced by the luciferase reaction, which has a half-life generally greater than five hours, depending on cell type and medium used. The extended half-life eliminates the need to use reagent injectors and provides flexibility for continuous or batch mode processing of multiple plates. The unique homogeneous format avoids errors that may be introduced by other ATP measurement methods that require multiple steps.
HCT 116 cells (human colon carcinoma, ATCC-No. CCl-247) were cultivated in RPMI 1640 medium with GlutaMAX™ I (cell culture media that contains L-Alanyl-L-Glutamine [a stabilized form/source of L-Glutamine] from Invitrogen, Cat-No. 61870-010), 5% Fetal Calf Serum (FCS, Sigma Cat-No. F4135 (FBS)); 100 Units/ml penicillin/100 μg/ml streptomycin (=Pen/Strep from Invitrogen Cat. No. 15140). For the assay the cells were seeded in 384 well plates, 1000 cells per well, in the same medium. The next day the test compounds were added in various concentrations ranging from 30 μM to 0.0015 μM (10 concentrations, 1:3 diluted). After 5 days the viability assay was performed according to the instructions of the manufacturer. In brief: the cell-plate was equilibrated to room temperature for approximately 30 minutes and then the CellTiter-Glo™ reagent (which contains luciferase, luciferan substrate, and buffer) was added. The contents were carefully mixed for 15 minutes to induce cell lysis. After 45 minutes the luminescent signal was measured in Victor 2, (scanning multiwell spectrophotometer, Wallac).
1st. Day: • Medium: RPMI 1640 with GlutaMAX™ I (Invitrogen, Cat-No. 61870), 5% FCS (Sigma Cat.-No. F4135), Pen/Strep (Invitrogen, Cat No. 15140). • HCT116 (ATCC-No. CCl-247): 1000 cells in 60 μl per well of 384 well plate (Greiner 781098, μClear-plate white) • After seeding incubate plates 24 h at 37° C., 5% CO2 2nd. Day: Induction (Treatment with Compounds, 10 Concentrations):
In order to achieve a final concentration of 30 μM as highest concentration 3.5 μl of 10 mM compound stock solution were added directly to 163 μl media. Then step e) of the dilution procedure described below, was followed.
In order to achieve the second highest to the lowest concentrations, a serial dilution with dilution steps of 1:3 was followed according to the procedure (a-e) as described here below: a) for the second highest concentration add 10 μl of 10 mM stock solution of compound to 20 μl dimethylsulfoxide (DMSO) b) dilute 8×1:3 (always 10 μl to 20 μl DMSO) in this DMSO dilution row (results in 9 wells with concentrations from 3333.3 μM to 0.51 μM) c) dilute each concentration 1:47.6 (3.5 μl compound dilution to 163 μl media) […]
A general note: In ATP-based viability assays light output follows the ATP content of the culture.

The term IC50 denotes the concentration that gives 50% inhibition. Turning to `COc1cc2cc(Nc3cc(C)[nH]n3)nc(OC3CCCC3)c2cc1OC` [Example 117, (1-Cyclopentyloxy-6,7-dimethoxy-isoquinolin-3-yl)-(5-methyl-1H-pyrazol-3-yl)-amine], the half-maximal inhibitory concentration (IC50) in assay [1] was found to be 21 nM; in assay [2], 666 nM.
Regarding `Cc1cc(Nc2cc3ccccc3c(-c3ccncc3)n2)n[nH]1` [Example 162, (5-Methyl-1H-pyrazol-3-yl)-(1-pyridin-4-yl-isoquinolin-3-yl)-amine], in assay [1], the half-inhibitory concentration (IC50) is 330 nM.
In the case of `COc1ccc2c(Nc3ccc(Br)cc3)nc(Nc3cc(C)[nH]n3)cc2c1` [Example 275, N^1-(4-Bromo-phenyl)-6-methoxy-N^3-(5-methyl-1H-pyrazol-3-yl)-isoquinoline-1,3-diamine], the IC50 came to 43 nM in assay [1] and 995 nM in assay [2].
`CC(=O)Nc1ccc(Oc2nc(Nc3cc(C)[nH]n3)cc3ccccc23)cc1` [Example 59, N-{4-[-3-(5-Methyl-1H-pyrazol-3-ylamino)-isoquinolin-1-yloxy]-phenyl}-acetamide]: the half-inhibitory concentration (IC50) in assay [1] stood at 39 nM.
Consider `COc1ccc2c(-c3ccc4ccccc4c3)nc(Nc3cc(C)[nH]n3)cc2c1` [Example 183, (5-Methyl-1H-pyrazol-3-yl)-(1-naphthalen-2-yl-6-methoxy-isoquinolin-3-yl)-amine], for which the results for the 50% inhibitory concentration (IC50) in assay [1] and in assay [2] were 390 nM and 4010 nM, respectively.
With `COc1ccc2c(-c3ccc4ccccc4c3)nc(Nc3cc[nH]n3)cc2c1` [Example 265, (6-Methoxy-1-naphthalen-2-yl-isoquinolin-3-yl)-(1H-pyrazol-3-yl)-amine], in assay [1], the 50% inhibitory concentration (IC50) stood at 2970 nM.
Still for that read-out and setting: the value for `Cc1ccc(Oc2nc(Nc3cc(C)[nH]n3)cc3ccccc23)cc1` [Example 14, (5-Methyl-1H-pyrazol-3-yl)-(1-p-tolyloxy-isoquinolin-3-yl)-amine] was 66 nM.
On to `COc1cccc2c(-c3cccc(C#N)c3)nc(Nc3cc(C)[nH]n3)cc12` [Example 201, 3-[3-(5-Methyl-1H-pyrazol-3-ylamino)-5-methoxy-isoquinolin-1-yl]-benzonitrile], for which the half-maximal inhibitory concentration (IC50) in assay [1] is 47 nM.

For the origin of these results see patent publication US7572809B2, “Isoquinoline aminopyrazole derivatives” (Hoffmann-La Roche Inc., priority 2005, dated 2009).
